According to patent US12077503B2, “Substituted cyclic amides and their use as herbicides” (FMC CORPORATION, priority 2015, dated 2024):

Columns and labels:
Assay type in all cases: in vivo
Kochia (Kochia scoparia) [1] = test: Test A preemergence; settings: Bassia scoparia, pre-emergence, 240 h, 0 to 100 scale where 0 is no effect and 100 is complete control, read-out: Kochia plant response rating; for pest or weed control at 31 g/ha: 31 g ai/ha, Preemergence; for pest or weed control at 125 g/ha: 125 g ai/ha, preemergence, visual injury rating, approximately 10 d
How it was run: (§1)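 In a loam soil and sand blend, planted seeds got a preemergence directed soil spray, and young plants at the one- to two-leaf stage, 2–10 cm high, got a postemergence application; ~10 d greenhouse hold; injury rated visually, 0 = none, 100 = complete control.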

[2] = system: barnyardgrass (Echinochloa crus-galli); test: Test A preemergence; settings: Echinochloa crus-galli, pre-emergence, 240 h, 0 to 100 scale where 0 is no effect and 100 is complete control, read-out: Barnyardgrass plant response rating; for pest or weed control at 31 g/ha: 31 g ai/ha, Preemergence; for pest or weed control at 125 g/ha: 125 g ai/ha, preemergence, visual injury rating, approximately 10 d
How it was run: as §1

[3] = system: giant foxtail (Setaria faberii); test: Test A preemergence; settings: Setaria faberi, pre-emergence, 240 h, 0 to 100 scale where 0 is no effect and 100 is complete control, read-out: Foxtail, Giant plant response rating; for pest or weed control at 31 g/ha: 31 g ai/ha, Preemergence; for pest or weed control at 125 g/ha: 125 g ai/ha, preemergence, visual injury rating, approximately 10 d
How it was run: as §1

[4] = system: pigweed (Amaranthus retroflexus); test: Test A preemergence; settings: Amaranthus retroflexus, pre-emergence, 240 h, 0 to 100 scale where 0 is no effect and 100 is complete control, read-out: Pigweed plant response rating; for pest or weed control at 31 g/ha: 31 g ai/ha, Preemergence; for pest or weed control at 125 g/ha: 125 g ai/ha, preemergence, visual injury rating, approximately 10 d
[5] = system: ragweed (common ragweed, Ambrosia elatior); test: Test A preemergence; settings: Ambrosia artemisiifolia, pre-emergence, 240 h, 0 to 100 scale where 0 is no effect and 100 is complete control, read-out: Ragweed plant response rating; for pest or weed control at 31 g/ha: 31 g ai/ha, Preemergence; for pest or weed control at 125 g/ha: 125 g ai/ha, preemergence, visual injury rating, approximately 10 d
How it was run: as §1

[6] = system: ryegrass, Italian (Italian ryegrass, Lolium multiflorum); test: Test A preemergence; settings: Lolium multiflorum, pre-emergence, 240 h, 0 to 100 scale where 0 is no effect and 100 is complete control, read-out: Ryegrass, Italian plant response rating; for pest or weed control at 31 g/ha: 31 g ai/ha, Preemergence; for pest or weed control at 125 g/ha: 125 g ai/ha, preemergence, visual injury rating, approximately 10 d
How it was run: as §1

[7] = system: Galium (catchweed bedstraw, Galium aparine); test: Test A postemergence; settings: Galium, post-emergence, 240 h, Postemergence, read-out: Galium plant response rating (0 to 100 scale); for pest or weed control at 125 g/ha: 125 g ai/ha, visual rating about 10 d after treatment; for pest or weed control at 31 g/ha: 31 g ai/ha, 0 is no effect, 100 is complete control
How it was run: as §1

Kochia (Kochia scoparia) [8] = test: Test A postemergence; settings: Bassia scoparia, post-emergence, 240 h, Postemergence, read-out: Kochia plant response rating (0 to 100 scale); for pest or weed control at 125 g/ha: 125 g ai/ha, visual rating about 10 d after treatment; for pest or weed control at 31 g/ha: 31 g ai/ha, 0 is no effect, 100 is complete control
How it was run: as §1

[9] = system: barnyardgrass (Echinochloa crus-galli); test: Test A postemergence; settings: Echinochloa crus-galli, post-emergence, 240 h, Postemergence; for pest or weed control at 125 g/ha: 125 g ai/ha, visual rating about 10 d after treatment, read-out: Barnyardgrass plant response rating (0 to 100 scale, 0 no effect, 100 complete control); for pest or weed control at 31 g/ha: 31 g ai/ha, 0 is no effect, 100 is complete control, read-out: Barnyardgrass plant response rating (0 to 100 scale)
How it was run: as §1

[10] = system: blackgrass (Alopecurus myosuroides); test: Test A postemergence; settings: Alopecurus myosuroides, post-emergence, 240 h, Postemergence, read-out: Blackgrass plant response rating (0 to 100 scale); for pest or weed control at 125 g/ha: 125 g ai/ha, visual rating about 10 d after treatment; for pest or weed control at 31 g/ha: 31 g ai/ha, 0 is no effect, 100 is complete control
How it was run: as §1

corn (Zea mays) = test: Test A postemergence; settings: Zea mays, post-emergence, 240 h, Postemergence, read-out: Corn plant response rating (0 to 100 scale); for plant injury at 125 g/ha: 125 g ai/ha, visual rating about 10 d after treatment; for plant injury at 31 g/ha: 31 g ai/ha, 0 is no effect, 100 is complete control
How it was run: as §1

[11] = system: giant foxtail (Setaria faberii); test: Test A postemergence; settings: Setaria faberi, post-emergence, 240 h, Postemergence, read-out: Foxtail, Giant plant response rating (0 to 100 scale); for pest or weed control at 125 g/ha: 125 g ai/ha, visual rating about 10 d after treatment; for pest or weed control at 31 g/ha: 31 g ai/ha, 0 is no effect, 100 is complete control
How it was run: as §1

[12] = system: pigweed (Amaranthus retroflexus); test: Test A postemergence; settings: Amaranthus retroflexus, post-emergence, 240 h, Postemergence, read-out: Pigweed plant response rating (0 to 100 scale); for pest or weed control at 125 g/ha: 125 g ai/ha, visual rating about 10 d after treatment; for pest or weed control at 31 g/ha: 31 g ai/ha, 0 is no effect, 100 is complete control
How it was run: as §1

[13] = system: ragweed (common ragweed, Ambrosia elatior); test: Test A postemergence; settings: Ambrosia artemisiifolia, post-emergence, 240 h, Postemergence, read-out: Ragweed plant response rating (0 to 100 scale); for pest or weed control at 125 g/ha: 125 g ai/ha, visual rating about 10 d after treatment; for pest or weed control at 31 g/ha: 31 g ai/ha, 0 is no effect, 100 is complete control
How it was run: as §1

[14] = system: ryegrass, Italian (Italian ryegrass, Lolium multiflorum); test: Test A postemergence; settings: Lolium multiflorum, post-emergence, 240 h, Postemergence, read-out: Ryegrass, Italian plant response rating (0 to 100 scale); for pest or weed control at 125 g/ha: 125 g ai/ha, visual rating about 10 d after treatment; for pest or weed control at 31 g/ha: 31 g ai/ha, 0 is no effect, 100 is complete control
How it was run: as §1

[15] = system: wheat (Triticum aestivum); test: Test A postemergence; settings: Triticum aestivum, post-emergence, 240 h, Postemergence, read-out: Wheat plant response rating (0 to 100 scale); for plant injury at 125 g/ha: 125 g ai/ha, visual rating about 10 d after treatment; for plant injury at 31 g/ha: 31 g ai/ha, 0 is no effect, 100 is complete control
How it was run: as §1

[16] = system: barnyardgrass (Echinochloa crus-galli); test: Test B flooded paddy test; settings: Echinochloa crus-galli, 250 g ai/ha, Flood; 0 to 100 scale where 0 is no effect and 100 is complete control; read-out: Barnyardgrass plant response rating
How it was run: (§2)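 Plants at 2-leaf stage flooded to 3 cm above soil, with compounds applied directly to paddy water and that depth maintained. Plants kept in greenhouse 13–15 d. Visual rating versus controls on a 0 (no effect) to 100 (complete control) scale.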

[17] = system: ducksalad (Heteranthera limosa); test: Test B flooded paddy test; settings: Heteranthera limosa, 250 g ai/ha, Flood; 0 to 100 scale where 0 is no effect and 100 is complete control; read-out: Ducksalad plant response rating
How it was run: as §2

rice (Oryra sativa) = test: Test B flooded paddy test; settings: Oryza sativa, 250 g ai/ha, Flood; 0 to 100 scale where 0 is no effect and 100 is complete control; read-out: Rice plant response rating
How it was run: as §2

[18] = system: sedge, umbrella (small-flower umbrella sedge, Cyperus difformis); test: Test B flooded paddy test; settings: Cyperus difformis, 250 g ai/ha, Flood; 0 to 100 scale where 0 is no effect and 100 is complete control; read-out: Sedge, Umbrella plant response rating
How it was run: as §2

| Compound | pest or weed control at 31 g/ha (Kochia (Kochia scoparia) [1]) [%] | pest or weed control at 125 g/ha (Kochia (Kochia scoparia) [1]) [%] | pest or weed control at 31 g/ha [2] [%] | pest or weed control at 125 g/ha [2] [%] | pest or weed control at 31 g/ha [3] [%] | pest or weed control at 125 g/ha [3] [%] | pest or weed control at 31 g/ha [4] [%] | pest or weed control at 125 g/ha [4] [%] | pest or weed control at 31 g/ha [5] [%] | pest or weed control at 125 g/ha [5] [%] | pest or weed control at 31 g/ha [6] [%] | pest or weed control at 125 g/ha [6] [%] | pest or weed control at 125 g/ha [7] [%] | pest or weed control at 31 g/ha [7] [%] | pest or weed control at 125 g/ha (Kochia (Kochia scoparia) [8]) [%] | pest or weed control at 31 g/ha (Kochia (Kochia scoparia) [8]) [%] | pest or weed control at 125 g/ha [9] [%] | pest or weed control at 31 g/ha [9] [%] | pest or weed control at 125 g/ha [10] [%] | pest or weed control at 31 g/ha [10] [%] | further results |
| --- | --- | --- | --- | --- | --- | --- | --- | --- | --- | --- | --- | --- | --- | --- | --- | --- | --- | --- | --- | --- | --- |
| CN1C[C@H](c2ccccc2)[C@@H](C(=O)Nc2cccc(F)c2F)C1=O [Compound 1282] | 30 | 70 | 100 | 100 | 100 | 100 | 60 | 80 | 0 | 90 | 30 | 70 | 70 | 40 | 60 | 0 | 100 | 90 | 0 | 0 | plant injury at 125 g/ha (corn (Zea mays)): 30%; plant injury at 31 g/ha (corn (Zea mays)): 0%; pest or weed control at 125 g/ha [11]: 80%; pest or weed control at 31 g/ha [11]: 80%; pest or weed control at 125 g/ha [12]: 20%; pest or weed control at 31 g/ha [12]: 0%; pest or weed control at 125 g/ha [13]: 40%; pest or weed control at 31 g/ha [13]: 0%; pest or weed control at 125 g/ha [14]: 40%; pest or weed control at 31 g/ha [14]: 0%; plant injury at 125 g/ha [15]: 50%; plant injury at 31 g/ha [15]: 0%; pest or weed control at 250 g/ha [16]: 90%; pest or weed control at 250 g/ha [17]: 100%; pest or weed control at 250 g/ha (rice (Oryra sativa)): 30%; pest or weed control at 250 g/ha [18]: 0% |
| CN1C[C@H](c2cccc(C(F)(F)F)c2)[C@@H](C(=O)Nc2ccccc2-n2cccn2)C1=O [Compound 1284] | 0 | 0 | 0 | 0 | 0 | 0 | 0 | 0 | 0 | 0 | 0 | 0 | 0 | 0 | 0 | 0 | 0 | 0 | 0 | 0 | plant injury at 125 g/ha (corn (Zea mays)): 0%; plant injury at 31 g/ha (corn (Zea mays)): 0%; pest or weed control at 125 g/ha [11]: 0%; pest or weed control at 31 g/ha [11]: 0%; pest or weed control at 125 g/ha [12]: 0%; pest or weed control at 31 g/ha [12]: 0%; pest or weed control at 125 g/ha [13]: 0%; pest or weed control at 31 g/ha [13]: 0%; pest or weed control at 125 g/ha [14]: 0%; pest or weed control at 31 g/ha [14]: 0%; plant injury at 125 g/ha [15]: 0%; plant injury at 31 g/ha [15]: 0%; pest or weed control at 250 g/ha [16]: 0%; pest or weed control at 250 g/ha [17]: 0%; pest or weed control at 250 g/ha (rice (Oryra sativa)): 0%; pest or weed control at 250 g/ha [18]: 0% |
